A value given as a limit tells only on which side of the number the result lay.

The first experiment deals with Dipeptidyl peptidase 4 (Homo sapiens, UniProt P27487). Description: Inhibition of DPP4 (unknown origin) using Gly-Pro-AMC as substrate preincubated for 30 mins followed by substrate addition measured after 50 mins by fluorescence assay.
Chain of Dipeptidyl peptidase 4 (P27487 whole entry): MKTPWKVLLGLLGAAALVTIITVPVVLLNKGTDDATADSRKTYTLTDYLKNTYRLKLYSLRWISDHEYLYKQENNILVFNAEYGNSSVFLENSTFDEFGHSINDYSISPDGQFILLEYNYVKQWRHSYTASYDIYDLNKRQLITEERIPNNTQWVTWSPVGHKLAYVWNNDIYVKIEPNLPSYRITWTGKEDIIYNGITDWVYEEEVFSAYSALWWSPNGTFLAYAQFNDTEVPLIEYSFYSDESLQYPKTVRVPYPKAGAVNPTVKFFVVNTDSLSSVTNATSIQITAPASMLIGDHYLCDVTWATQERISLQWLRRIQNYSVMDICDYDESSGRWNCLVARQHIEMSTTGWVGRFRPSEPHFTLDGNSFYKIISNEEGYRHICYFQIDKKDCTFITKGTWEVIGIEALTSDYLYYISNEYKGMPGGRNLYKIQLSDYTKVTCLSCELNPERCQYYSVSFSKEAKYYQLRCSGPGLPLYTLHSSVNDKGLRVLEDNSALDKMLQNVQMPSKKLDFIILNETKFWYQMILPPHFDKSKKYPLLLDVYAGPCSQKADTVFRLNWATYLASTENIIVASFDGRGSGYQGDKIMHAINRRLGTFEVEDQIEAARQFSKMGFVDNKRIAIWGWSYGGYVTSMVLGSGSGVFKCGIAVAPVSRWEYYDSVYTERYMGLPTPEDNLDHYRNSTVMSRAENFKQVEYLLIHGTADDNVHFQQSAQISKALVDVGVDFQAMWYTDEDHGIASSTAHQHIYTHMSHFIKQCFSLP
The term IC50 denotes the concentration that gives 50% inhibition. In the case of `CC#CCn1c(N2CCC[C@@H](N)C2)nc2c1c(=O)nc1n2CCCN1CCCc1ccccc1`, the half-maximal inhibitory concentration (IC50) is above 10 µM.

As for `CC#CCn1c(N2CCC[C@@H](N)C2)nc2c1C(=O)N(CCCc1ccccc1)C1=NCCCN12`, the 50% inhibitory concentration (IC50) was above 10 µM.

For the next experiment, the target named is T1, Prolyl endopeptidase FAP (Homo sapiens, UniProt Q12884).
T1 sequence (Q12884 whole entry): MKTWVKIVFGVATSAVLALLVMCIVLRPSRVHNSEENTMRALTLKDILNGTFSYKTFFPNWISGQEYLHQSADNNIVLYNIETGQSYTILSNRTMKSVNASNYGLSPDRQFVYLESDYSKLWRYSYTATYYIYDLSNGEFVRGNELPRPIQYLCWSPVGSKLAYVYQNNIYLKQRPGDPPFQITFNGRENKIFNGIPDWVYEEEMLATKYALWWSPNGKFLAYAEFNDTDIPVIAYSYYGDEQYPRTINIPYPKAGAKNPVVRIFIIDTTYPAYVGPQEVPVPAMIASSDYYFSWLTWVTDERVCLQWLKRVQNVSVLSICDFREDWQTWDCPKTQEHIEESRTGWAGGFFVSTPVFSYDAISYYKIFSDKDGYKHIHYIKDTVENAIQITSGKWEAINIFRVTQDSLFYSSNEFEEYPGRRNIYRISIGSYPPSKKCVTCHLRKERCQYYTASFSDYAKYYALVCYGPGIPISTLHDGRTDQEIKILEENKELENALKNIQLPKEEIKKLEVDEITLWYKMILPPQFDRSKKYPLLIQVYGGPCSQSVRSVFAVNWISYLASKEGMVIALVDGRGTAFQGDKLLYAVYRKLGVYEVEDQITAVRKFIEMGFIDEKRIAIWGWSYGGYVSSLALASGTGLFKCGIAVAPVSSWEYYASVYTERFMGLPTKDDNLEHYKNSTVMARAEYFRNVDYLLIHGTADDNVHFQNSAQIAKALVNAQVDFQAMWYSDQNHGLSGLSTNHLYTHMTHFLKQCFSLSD
Put plainly: Inhibition of FAP (unknown origin) using Nle-Pro-AMC as substrate preincubated for 20 mins followed by substrate addition measured after 40 mins by fluorescence assay.
`CC#CCn1c(N2CCC[C@@H](N)C2)nc2c1C(=O)N(Cc1nc(C)c3ccccc3n1)C1=NCCN12` displayed a half-inhibitory concentration (IC50) of 0.367 µM.

`Cc1nc(CN2C(=O)c3c(nc(N4CCC[C@@H](N)C4)n3Cc3cc(F)ccc3F)N3CCN=C23)nc2ccccc12` returned a half-maximal inhibitory concentration (IC50) of 9.92 µM. Same read-out and setting: then `CC#CCn1c(N2CCC[C@@H](N)C2)nc2c1C(=O)N(Cc1nc(C)c3ccccc3n1)C1=NCCCN12`, with 0.268 µM; and `CC(C)=CCn1c(N2CCC[C@@H](N)C2)nc2c1C(=O)N(Cc1nc(C)c3ccccc3n1)C1=NCCN12`, with 0.755 µM; and `Cc1nc(CN2C(=O)c3c(nc(N4CCC[C@@H](N)C4)n3Cc3cccc(F)c3)N3CCN=C23)nc2ccccc12`, with 4.62 µM. On the same count and under the same terms, then `Cc1nc(CN2C(=O)c3c(nc(N4CCC[C@@H](N)C4)n3Cc3ccccc3)N3CCN=C23)nc2ccccc12`, with 4.64 µM; and `Cc1nc(CN2C(=O)c3c(nc(N4CCC[C@@H](N)C4)n3CC3CC3)N3CCN=C23)nc2ccccc12`, with 3.12 µM. The same measure, in the same setting: then `CC#CCn1c(N2CCC[C@@H](N)C2)nc2c1C(=O)N(Cc1ccc(OC)cc1)C1=NCCCN12`, with above 50 µM; and `CC#CCn1c(N2CCC[C@@H](N)C2)nc2c1C(=O)N(Cc1cccc3ccccc13)C1=NCCCN12`, with 22.4 µM. Take `CC#CCn1c(N2CCC[C@@H](N)C2)nc2c1C(=O)N(Cc1ccccc1C#N)C1=NCCN12`: the concentration for half-maximal inhibition (IC50) was above 100 µM. Same read-out and setting: in the case of `Cc1nc(CN2C(=O)c3c(nc(N4CCC[C@@H](N)C4)n3CC3CC3(F)F)N3CCN=C23)nc2ccccc12` (stereo partly drawn) it was 14.7 µM.

As for `Cc1nc(CN2C(=O)c3c(nc(N4CCC[C@@H](N)C4)n3CC3CCC3)N3CCN=C23)nc2ccccc12`, the 50% inhibitory concentration (IC50) was 3.05 µM. Compared with the last compound, the IC50 is about 4.8-fold lower. Same read-out and setting: in the case of `Cc1nc(CN2C(=O)c3c(nc(N4CCC[C@@H](N)C4)n3Cc3ccccc3C#N)N3CCN=C23)nc2ccccc12` it was 15.3 µM; in that of `Cc1nc(CN2C(=O)c3c(nc(N4CCC[C@@H](N)C4)n3CC(=O)C3CC3)N3CCN=C23)nc2ccccc12`, 0.107 µM; in that of `CC#CCn1c(N2CCC[C@@H](N)C2)nc2c1C(=O)N(Cc1cccc(C#N)c1)C1=NCCN12`, 78.5 µM. On the same count and under the same terms, in the case of `CC#CCn1c(N2CCC[C@@H](N)C2)nc2c1C(=O)N(Cc1ccc(C#N)cc1)C1=NCCN12` it was 88.3 µM.

The record behind these values is ChEMBL document CHEMBL4428131, “Scaffold-hopping from xanthines to tricyclic guanines: A case study of dipeptidyl peptidase 4 (DPP4) inhibitors” (Bioorg Med Chem, 2016).
